Source: US20240325402A1, “MOMELOTINIB COMBINATION THERAPY” (GlaxoSmithKline LLC, priority 2021, published 2024)
Where a name gives a salt, the structure may show the parent alone. Read-outs that look alike come from different tables or passages of the source.

Test system: NF-kB reporter activity
Assay: NF-kB luciferase reporter assay (TNFa-stimulated NF-kB Reporter-HEK293 cells)
Format: cell-based, human
Conditions: for inhibition at 10 µM / IC50 / Percent Inhibition at 10 uM: NF-kB Reporter-HEK293 cells; for inhibition at 10 µM / Percent Inhibition at 10 uM: compound at 10 uM; for inhibition at 10 µM: read-out: Percent Inhibition at 10 uM
Protocol: NF-kB Reporter-HEK293 cell line (BPS Bioscience #60650); MEM medium (Hyclone #SH30024.01); Fetal bovine serum (Life Technologies #10082147); Non-essential amino acid (Corning 25-025-C1); Na-pyruvate (Hyclone #SH30239.01); Pen-strep (Hyclone #SV30010); Hygromycin B (Invitrogen/Thermo-Fisher #10687010); IKK-16 dihydrochloride—NF-kB inhibitor (Sigma SML1138); TNFa (R&D Systems 210-TA); ONE-Step luciferase assay system (BPS Bioscience #60690).
Cell culture. Cells were cultured in MEM medium with 10% FBS, 1% non-essential amino acid, 1 mM Na-pyruvate, 1% Pen-strep, and 50 μg/mL Hygromycin B.
To perform the NF-kB luciferase reporter assay, NF-kB Reporter—HEK293 cells were seeded at 30,000 cells per well into white clear-bottom 96-well microplate in 60 μL of assay medium (growth medium without Hygromycin B). Cells were incubated at 37° C. and 5% CO2 for 5 hours to allow them attach. A serial dilution of compounds was prepared in assay medium without Hygromycin B. Thirty μL of diluted compounds was added to the treatment wells at the end of the day. Thirty μL of assay medium with the same concentration of DMSO without compound was added to the control wells. One hundred μL of assay medium with DMSO was added to cell-free control wells for determining background luminescence. Cells were incubated at 37° C. and 5% CO2 overnight.
The next day ten μL of diluted human TNFa in assay medium was added to wells (final [TNFa]=10 ng/mL). Ten μL of assay medium was added to unstimulated control wells. Cells were incubated at 37° C. and 5% CO2 for 5-6 hours. After treatment, cells were lysed and the luciferase assay was performed using ONE-Step luciferase assay system: add 100 μL of One-Step Luciferase reagent per well and rock at room temperature for ˜30 minutes. Luminescence was measured using a luminometer (BioTek Synergy™ 2 microplate reader).

[1] = Homo sapiens, TNFa 10 ng/mL, curve fit with top and bottom locked, read-out: IC50 Lock top and bottom of curve
[2] = Homo sapiens, overnight compound, TNFa 10 ng/mL 5-6 hours, luciferase, read-out: IC50 against NF-kB reporter activity
[3] = TNFa 10 ng/mL, curve fit with top and bottom locked, read-out: IC50 Lock top and bottom of curve
[4] = overnight compound, TNFa 10 ng/mL 5-6 hours, luciferase, read-out: IC50 against NF-kB reporter activity

| IC50 [1] [nM] | IC50 [2] [nM] | SMILES | inhibition at 10 µM (Homo sapiens, TNFa 10 ng/mL) [%] | Percent Inhibition at 10 uM (TNFa 10 ng/mL) [%] | IC50 [3] [nM] | IC50 [4] [nM] | downregulation of NF-κB signaling in a luciferase assay (cellular data, compounds ran in parallel) |
| --- | --- | --- | --- | --- | --- | --- | --- |
| 540 | 270 | Cc1noc2c1-c1ccccc1C(c1ccc(Cl)cc1)=N[C@H]2CC(N)=O [CPI-0610] | 78 | – | – | – | – |
| – | – | Cc1cnc(Nc2ccc(OCCN3CCCC3)cc2)nc1Nc1cccc(S(=O)(=O)NC(C)(C)C)c1 [Fedratinib (TG101348)] | – | 99 | 2900 | 6100 | – |
| – | – | O=C(c1ccc(Nc2nccc(-c3cc4ccccc4s3)n2)cc1)N1CCC(N2CCCC2)CC1 [IKK-16 dihydrochloride] | – | 88 | 260 | 330 | – |
| 430 | 470 | N#CCNC(=O)c1ccc(-c2ccnc(Nc3ccc(N4CCOCC4)cc3)n2)cc1 [MMB/Momelotinib, N-(cyanomethyl)-4-(2-(4-morpholinophenylamino)pyrimidin-4-yl)benzamide] | 100 | – | – | – | downregulates NF-κB signaling |
| 1200 | 1400 | C1=C/COCc2cc(ccc2OCCN2CCCC2)Nc2nccc(n2)-c2cccc(c2)COC/1 [Pacritinib (SB1518)] | 100 | – | – | – | – |
| – | – | N#CC[C@H](C1CCCC1)n1cc(-c2ncnc3[nH]ccc23)cn1 [Ruxolitinib (INCB018424)] | -11 | – | – | – | – |
